Laboratory results as given in EP0920324B1, “PURE BIOLOGICALLY ACTIVE COLISTIN, ITS COMPONENTS AND A COLISTIN FORMULATION FOR TREATMENT OF PULMONARY INFECTIONS” (PATHOGENESIS CORPORATION, priority 1996, dated 1998).
Where a SMILES comes first, the peptide text is derived from it. Bridges are numbered along the chain shown (N, C = ends). [ ]: non-standard residue; d: D form. The star is where a group is joined. Octanoyl(6-Me) = CCC(C)CCCCC(=O)*; Dab = NCC[CH](N)C(=O)O

Key:
[1] = Gravimetric titration with HCl to determine pKa
Protocol: 107 mg of dry free base was suspended in 10.7 ml of deionized water and 1.21 M HCl was added under constant measurement of pH.
In order to determine the pKa of colistin component IV by titration, 107 mg of dry free base was suspended in 10.7 ml of deionized water in a 20 ml glass screwcap vial and stirred by magnetic stirrer. A calibrated Beckman Phi-10 pH meter with a Futura Plus combination electrode was placed in the suspension and the pH of the solution was monitored during the addition of 1.21 M HCl.

[2] = human, in vivo, 1 h; cited from earlier work
[3] = Jet nebulization (Pari LC Jet nebulizer), aerosol characterized by laser diffraction particle analyzer; assay type: physicochemical
Protocol: Colistin component IV sulfate was dissolved in 120 mM sodium chloride, and the pH was adjusted to 7.0 with 1 molar sodium hydroxide.
Four ml of solution to be nebulized was placed in a Pari LC Jet nebulizer fitted with a Pulmonaide Compressor (DeVilbiss Model 5650D) with an air flow rate of 4-6 liters/minute. Aerosols generated are characterized by passing through a laser diffraction particle analyzer (Malvern Mastersizer X). Each formulation was analyzed multiple times to determine reproducibility of results, which were expressed as total obscuration time, mass median average diameter, and respirable fraction.
Results are shown in Figure 18, which is a comparison of the-times required for aerosolization of 4 mL of the three solutions. The two drug solutions were analyzed three times, and saline was analyzed four times. Bars show standard deviations of measurements.
Colistin component IV sulfate or hydrochloride formulations were as described above in Example 15.
Four ml of solution to be nebulized was placed in a Pari LC Jet nebulizer fitted with a Pulmonaide Compressor, DeVilbiss Model 5650D, with an air flow rate of 4-6 liters/minute. Aerosol generated was characterized by passing through a Malvern Mastersizer X laser diffraction particle analyzer. Each formulation was analyzed multiple times to determine reproducibility of results, which were expressed as total obscuration time, mass median particle diameter, and respirable fraction.
Mass median particle diameters were expressed as average ± standard deviation (n) for aerosols.
Average respirable fractions were calculated as average percentage of particles ranging from 1 micron to 6 microns in diameter within the aerosol over time.

[4] = human, in vivo; cited from earlier work
Pseudomonas aeruginosa = assay: Time kill kinetic studies (bactericidal activity); assay type: cell-based
Protocol: Henry D. Isenberg, ASM, Washington, DC (1992). The exact procedure is described in Example 14.
Briefly, tests were similar to those used for determining MICs, except that the final test volume was larger (10 mL) to allow sampling at various time points. […] Cultures were incubated at 37°C. At initial set-up and at various time-points, cultures were plated, with or without further dilution, onto sheep blood agar plates. Plates were incubated for 18-24 hours, and the number of CFU/mL was determined and plotted to determine the percentage of surviving organisms and the time required to achieve 99.9% killing. Results are seen in Figure 15.
Colony-forming unit (CFU) per ml were determined and plotted against drug exposure time in hours.
Time kill kinetic studies were performed as described in (Antimicrobial Susceptibility Testing, Section 5.16. Tests to assess bactericidal activity, in Clinical Microbiology Procedure Handbook (supra).
Tests were set in the same way used for determining MICs (Example 13), except that the final test volume was larger (10 mL) to allow sampling at various time points. Cultures were incubated at 37°C. At initial set-up and at various desired time-points, cultures were sampled and plated (with or without further dilution) onto sheep blood agar plates. Plates were incubated for 18-24 hours, and the number of CFU/mL was determined and plotted to determine the percentage of surviving organisms and the time required to achieve 99.9% killing.

[5] = human, in vivo, iv; cited from earlier work
[6] = Solution pH monitored over time after dissolution; assay type: physicochemical; conditions: 10.0, 15.0 and 20.0 mg/ml in water
Protocol: These values correspond to concentrations of 3.7 mg/ml, 5.6 mg/ml and 7.4 mg/ml colistin base equivalent. Solution pH was monitored continuously at various times from 1 minute to 180 minutes and pH values and times were recorded.
Determination of component IV stability at physiologic pH was made by dissolving purified colistin component IV sulfate or hydrochloride at a concentration of 20 mg/ml in sterile water containing 120 mM NaCl. The solution was mixed and pH was monitored. A 10 N NaOH solution was used to adjust the solution pH to 6.95-7.00. Results are seen in Figure 16.
These values correspond to concentrations of 3.7 mg/ml, 5.6 mg/ml and 7.4 mg/ml colistin base equivalent. Solution pH was then monitored continuously using a Beckman Phi-10 pH meter fitted with a Beckman Futura Plus combination electrode calibrated at pH 4.0 and 7.0 as per manufacturer's instructions prior to use. At various times from 1 minute to 180 minutes, pH values and times were recorded.

[7] = average ± standard deviation, n = 3, 20 mg/ml solutions

CCC(C)CCCCC(=O)NC(CCN)C(=O)NC(C(=O)NC(CCN)C(=O)NC1CCNC(=O)C(C(C)O)NC(=O)C(CCN)NC(=O)C(CCN)NC(=O)C(CC(C)C)NC(=O)C(CC(C)C)NC(=O)C(CCN)NC1=O)C(C)O (centres unmarked) [colistin component IV] ({Octanoyl(6-Me)}-[Dab]T[Dab][Dab][Dab]LL[Dab][Dab]T; lactam 4-C; configuration not given here)
pKa ([1]; free base suspended in deionized water, titrated with 1.21 M HCl): approximately 9.0 | pKa ([1]; water): ~9

colimycin
drug converted to colistin in an hour [2]: ~3% | mean aerosolization time ([3]; 4 mL of 20 mg/ml solution, colistin component IV sulfate in 120 mM NaCl, isotonic, pH balanced, colimycin in 1/4 N saline, n = 3): 10.53 min | average respirable fraction (particles ranging from 1 micron to 6 microns in diameter) [3, 7]: 58.77 ± 2.03 percentage | mass median particle diameter of the aerosol [3, 7]: 4.11 ± 0.29 microns | patients reporting bronchoconstriction response as chest tightness [4]: approximately 65% | eradication of the Pseudomonas aeruginosa organism (Pseudomonas aeruginosa; 8 µg/mL, at 4 hours of testing): did not, even at 4 hours of testing, eradicate the Pseudomonas aeruginosa organism | killing of test organism (Pseudomonas aeruginosa; 16 µg/mL, at 3 hours): over 5 logs | time at which over 5 logs killing was shown (Pseudomonas aeruginosa; 64µg/mL): 1.5 hours | concentration required for a similar level of killing (over 5 logs within 2 hours) (Pseudomonas aeruginosa; freshly dissolved): 32 µg/ml | occurrence of nephrotoxicity symptoms [5]: about 5 % cases | occurrence of neurotoxicity symptoms [5]: about 29 % cases | pH of solution within 3 minutes [6]: > 7.5
